We go through six cell lines from the supplement of paper PMC10307832.

Holding throughout (assay): relative viability (nuclei count vs DMSO), 5 days (fraction); higher = more cells survive
Compound in the assay “Neratinib + OSI-027”: CCOc1cc2ncc(C#N)c(Nc3ccc(OCc4ccccn4)c(Cl)c3)c2cc1NC(=O)/C=C/CN(C)C [Neratinib] + COc1cccc2cc(-c3nc([C@H]4CC[C@H](C(=O)O)CC4)n4ncnc(N)c34)[nH]c12 [OSI-027] (partner 0.5 µM)
In short, it runs like this:
(§1)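 Medians of duplicate plates are given as relative viability. That measure is the nuclei count in treated wells divided by the count in vehicle wells. Counts were taken on 4× images of lung cancer cell lines in 1536-well plates, 5 days after pin-tool dosing the day after seeding with one drug alone or a fixed anchor-drug dose plus five library-drug doses (not always all listed) in √10 steps.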

Compound in the assay “Neratinib + Linsitinib”: CCOc1cc2ncc(C#N)c(Nc3ccc(OCc4ccccn4)c(Cl)c3)c2cc1NC(=O)/C=C/CN(C)C [Neratinib] + C[C@]1(O)C[C@@H](c2nc(-c3ccc4ccc(-c5ccccc5)nc4c3)c3c(N)nccn32)C1 [Linsitinib] (partner 1 µM)
In outline: as §1

Compound in the assay “Neratinib + Crizotinib”: CCOc1cc2ncc(C#N)c(Nc3ccc(OCc4ccccn4)c(Cl)c3)c2cc1NC(=O)/C=C/CN(C)C [Neratinib] + C[C@@H](Oc1cc(-c2cnn(C3CCNCC3)c2)cnc1N)c1c(Cl)ccc(F)c1Cl [Crizotinib] (partner 1 µM)
In outline:
as §1

Compound in the assay “Neratinib + Tozasertib”: CCOc1cc2ncc(C#N)c(Nc3ccc(OCc4ccccn4)c(Cl)c3)c2cc1NC(=O)/C=C/CN(C)C [Neratinib] + Cc1cc(Nc2cc(N3CCN(C)CC3)nc(Sc3ccc(NC(=O)C4CC4)cc3)n2)n[nH]1 [Tozasertib] (partner 0.1 µM)
In short, it runs like this:
as §1

Consider NCI-H2405, for which the relative viability with Neratinib + OSI-027 (first compound 0.01 µM) was found to be 0.666; with Neratinib + OSI-027 (first compound 0.03162 µM), 0.653; in the assay with Neratinib + OSI-027 (first compound 0.1 µM) it was 0.566; with Neratinib + OSI-027 (first compound 0.3162 µM), 0.69; in the assay with Neratinib + OSI-027 (first compound 1 µM), 0.496; with Neratinib + Linsitinib (first compound 0.01 µM) it was 0.945. Also, the relative viability in the assay with Neratinib + Linsitinib (first compound 0.03162 µM) worked out at 1.03; in the assay with Neratinib + Linsitinib (first compound 0.1 µM), 0.836; with Neratinib + Linsitinib (first compound 0.3162 µM) it was 0.792; with Neratinib + Linsitinib (first compound 1 µM), 0.469; with Neratinib + Crizotinib (first compound 0.01 µM), 0.873; with Neratinib + Crizotinib (first compound 0.03162 µM) it was 0.879. Also, the relative viability was found to be 0.834 in the assay with Neratinib + Crizotinib (first compound 0.1 µM); 0.765 with Neratinib + Crizotinib (first compound 0.3162 µM); 0.781 with Neratinib + Crizotinib (first compound 1 µM); 0.808 with Neratinib + Tozasertib (first compound 0.01 µM); 0.852 in the assay with Neratinib + Tozasertib (first compound 0.03162 µM); 0.712 with Neratinib + Tozasertib (first compound 0.1 µM). For the same cell line, the relative viability is 0.72 with Neratinib + Tozasertib (first compound 0.3162 µM) and 0.547 in the assay with Neratinib + Tozasertib (first compound 1 µM).
As to NCI-H2228, the relative viability with Neratinib + OSI-027 (first compound 0.01 µM) came to 0.536; with Neratinib + OSI-027 (first compound 0.1 µM), 0.662; in the assay with Neratinib + OSI-027 (first compound 0.3162 µM) it was 0.526; in the assay with Neratinib + OSI-027 (first compound 1 µM), 0.142; in the assay with Neratinib + Linsitinib (first compound 0.01 µM) it was 0.88; in the assay with Neratinib + Linsitinib (first compound 0.03162 µM), 0.526. Further, the relative viability with Neratinib + Linsitinib (first compound 0.1 µM) is 0.388; in the assay with Neratinib + Linsitinib (first compound 0.3162 µM) it was 0.582; in the assay with Neratinib + Linsitinib (first compound 1 µM), 0.421; in the assay with Neratinib + Crizotinib (first compound 0.01 µM), 0.668; with Neratinib + Crizotinib (first compound 0.03162 µM) it was 0.44; with Neratinib + Crizotinib (first compound 0.1 µM), 0.294. Further, the relative viability was found to be 0.322 with Neratinib + Crizotinib (first compound 0.3162 µM); 0.225 in the assay with Neratinib + Crizotinib (first compound 1 µM); 0.264 with Neratinib + Tozasertib (first compound 0.01 µM); 0.281 with Neratinib + Tozasertib (first compound 0.03162 µM); 0.178 with Neratinib + Tozasertib (first compound 0.1 µM); 0.267 with Neratinib + Tozasertib (first compound 0.3162 µM). For the same cell line, in the assay with Neratinib + Tozasertib (first compound 1 µM), the relative viability worked out at 0.126.
On to HCC-827, for which the relative viability stood at 0.81 with Neratinib + OSI-027 (first compound 0.01 µM); 0.774 in the assay with Neratinib + OSI-027 (first compound 0.03162 µM); 0.721 with Neratinib + OSI-027 (first compound 0.1 µM); 0.508 in the assay with Neratinib + OSI-027 (first compound 0.3162 µM); 0.16 with Neratinib + OSI-027 (first compound 1 µM); 1 in the assay with Neratinib + Linsitinib (first compound 0.01 µM). The relative viability with Neratinib + Linsitinib (first compound 0.03162 µM) came to 0.971; with Neratinib + Linsitinib (first compound 0.1 µM), 0.933; with Neratinib + Linsitinib (first compound 0.3162 µM), 0.931; with Neratinib + Linsitinib (first compound 1 µM), 0.221; in the assay with Neratinib + Crizotinib (first compound 0.01 µM), 0.986; in the assay with Neratinib + Crizotinib (first compound 0.03162 µM), 0.996. In addition, the relative viability with Neratinib + Crizotinib (first compound 0.1 µM) was found to be 0.778; in the assay with Neratinib + Crizotinib (first compound 0.3162 µM), 0.7; with Neratinib + Crizotinib (first compound 1 µM), 0.176; with Neratinib + Tozasertib (first compound 0.01 µM) it was 0.414; with Neratinib + Tozasertib (first compound 0.03162 µM), 0.428; with Neratinib + Tozasertib (first compound 0.1 µM), 0.396. Moreover, the relative viability in the assay with Neratinib + Tozasertib (first compound 0.3162 µM) was determined as 0.268; with Neratinib + Tozasertib (first compound 1 µM), 0.136.
Take NCI-H322M: the relative viability is 0.515 with Neratinib + OSI-027 (first compound 0.01 µM); 0.592 in the assay with Neratinib + OSI-027 (first compound 0.03162 µM); 0.519 in the assay with Neratinib + OSI-027 (first compound 0.1 µM); 0.365 in the assay with Neratinib + OSI-027 (first compound 0.3162 µM); 0.307 in the assay with Neratinib + OSI-027 (first compound 1 µM); 0.752 with Neratinib + Linsitinib (first compound 0.01 µM). In addition, the relative viability with Neratinib + Linsitinib (first compound 0.03162 µM) stood at 0.929; with Neratinib + Linsitinib (first compound 0.1 µM) it was 0.793; with Neratinib + Linsitinib (first compound 0.3162 µM), 0.486; with Neratinib + Linsitinib (first compound 1 µM), 0.337; in the assay with Neratinib + Crizotinib (first compound 0.03162 µM), 1.02; in the assay with Neratinib + Crizotinib (first compound 0.1 µM), 0.791. For the same cell line, the relative viability with Neratinib + Crizotinib (first compound 0.3162 µM) is 0.659; in the assay with Neratinib + Crizotinib (first compound 1 µM), 0.291; with Neratinib + Tozasertib (first compound 0.01 µM), 0.502; with Neratinib + Tozasertib (first compound 0.03162 µM) it was 0.47; with Neratinib + Tozasertib (first compound 0.1 µM), 0.451; with Neratinib + Tozasertib (first compound 0.3162 µM), 0.33. In addition, the relative viability in the assay with Neratinib + Tozasertib (first compound 1 µM) came to 0.284.
For HOP-62, the relative viability in the assay with Neratinib + OSI-027 (first compound 0.01 µM) came to 0.849; in the assay with Neratinib + OSI-027 (first compound 0.03162 µM), 0.914; in the assay with Neratinib + OSI-027 (first compound 0.1 µM), 0.799; with Neratinib + OSI-027 (first compound 0.3162 µM), 0.776; with Neratinib + OSI-027 (first compound 1 µM) it was 0.775; in the assay with Neratinib + Linsitinib (first compound 0.01 µM), 0.864. Besides, the relative viability in the assay with Neratinib + Linsitinib (first compound 0.03162 µM) amounted to 1.03; with Neratinib + Linsitinib (first compound 0.1 µM), 1.06; with Neratinib + Linsitinib (first compound 0.3162 µM), 1.09; in the assay with Neratinib + Linsitinib (first compound 1 µM), 1.07; with Neratinib + Crizotinib (first compound 0.01 µM) it was 1.07; in the assay with Neratinib + Crizotinib (first compound 0.03162 µM), 1.05. The relative viability was 0.806 with Neratinib + Crizotinib (first compound 0.1 µM); 0.932 with Neratinib + Crizotinib (first compound 0.3162 µM); 0.958 in the assay with Neratinib + Crizotinib (first compound 1 µM); 0.444 with Neratinib + Tozasertib (first compound 0.01 µM); 0.354 with Neratinib + Tozasertib (first compound 0.03162 µM); 0.33 with Neratinib + Tozasertib (first compound 0.1 µM). Moreover, the results for the relative viability with Neratinib + Tozasertib (first compound 0.3162 µM) and with Neratinib + Tozasertib (first compound 1 µM) were 0.369 and 0.32, respectively.
With HCC-44, the relative viability came to 0.723 with Neratinib + OSI-027 (first compound 0.01 µM); 0.655 with Neratinib + OSI-027 (first compound 0.03162 µM); 0.648 with Neratinib + OSI-027 (first compound 0.1 µM); 0.505 in the assay with Neratinib + OSI-027 (first compound 0.3162 µM); 0.548 in the assay with Neratinib + OSI-027 (first compound 1 µM); 0.724 with Neratinib + Linsitinib (first compound 0.01 µM). Further, the relative viability was determined as 0.697 with Neratinib + Linsitinib (first compound 0.03162 µM); 0.641 with Neratinib + Linsitinib (first compound 0.1 µM); 0.691 with Neratinib + Linsitinib (first compound 1 µM); 0.821 with Neratinib + Crizotinib (first compound 0.01 µM); 0.8 with Neratinib + Crizotinib (first compound 0.03162 µM); 0.727 in the assay with Neratinib + Crizotinib (first compound 0.1 µM). Further, the relative viability was 0.806 with Neratinib + Crizotinib (first compound 0.3162 µM); 0.851 with Neratinib + Crizotinib (first compound 1 µM); 1.31 in the assay with Neratinib + Tozasertib (first compound 0.01 µM); 1.15 with Neratinib + Tozasertib (first compound 0.03162 µM); 0.778 with Neratinib + Tozasertib (first compound 0.3162 µM); 0.458 with Neratinib + Tozasertib (first compound 1 µM).
